In patent US6673749B1, “Use of phyllocladane diterpenoids for plant growth promotion and alleviation of growth retardant allelochemicals, and method therefor” (Council of Scientific and Industrial Research, priority 2002, dated 2004):

Legend:
Type in all cases: in vivo
[1] = tested on: Sesbania cannabina; test: Seed germination and seedling growth, comparison with GA3 (Example 4)
Procedure: (§1) 100 ml stalk solutions of 0.1 μM concentration were prepared by dissolving required amounts of various test compounds (depending upon their molecular weights) in minimum amount of ethanol or acetone and adding distilled water. From this stalk solution, 0.01 μM and 0.001 μM concentrations were prepared. Calliterpenone and calliterpenone di acetate was dissolved in 2.0 ml absolute ethanol (Merc), while; calliterpenone monoacetate, isopropylideno calliterpenone and trihydroxy calliterpenone were dissolved in 2.0 ml spectral grade acetone (Ranbaxy). The respective control test solutions of distilled water of each concentration also contained equal amount of absolute ethanol or acetone. For an assay, 10 seeds were placed on Whatman filter paper (moistened with 5.0 ml of test solution in a 9.0 cm diameter petridish (in triplicate). The pteridishes were incubated for 9 days in a germinator, maintained at 25.0±1.0° C. with 90% humidity and 4 hr light/day. At the end of incubation, observations were recorded on the seedlings in terms of germination, shoot and root growth. The data on the length of shoot and root of seedlings and number of seeds germinated in different concentrations of compounds were compared with the control, which was taken as 100%. The data thus obtained were presented in Table-1.
(§2) Effect of calliterpenone and its derivatives on seed germination and seedling growth in Hibiscus sabdariffa and Sesbania cannabina were measured in the similar way as these were measured in Example-1.

[2] = tested on: Hibiscus sabdariffa; test: as above
Procedure: as §1, §2

[3] = tested on: Sesbania cannabina; test: Antagonistic effect with Artemisia annua seed extract on germination and seedling growth; conditions: A. annua seed extract (0.65 g seeds/100 ml) alone or mixed 1:1 with 0.01 μm compound, control = 100%
Procedure: (§3) On the other hand, it is evident from Exp. 1-4 that phyllocladane diterpenenoids have produced germination and growth promoting activities on various plant species. To find out the combined effect of A. annua extract and phyllocladane diterpenoides on the germination and seedling growth of different plant species, 1:1 ratio of these compounds and A.annua extract were tested in the present experiment. For this, Hibiscus sabdariffa and Sesbania cannabina seeds were germinated in A.annua seed extract and solutions prepared by mixing this extract with 0.01 μm calliterpenone and calliterpenone mono-acetate respectively (Table 7). For the preparation of A.annua extract, 1.3 g seeds were soaked in 100 ml of distilled water for 24 hrs for testing on H. sabdariffa. Since, at this concentration, seeds of this species have shown 69% mortality which may be taken as good indicator. This effect was also recorded in S.cannabina. Since, in this case, seeds were almost half in weight as compared to the seeds of H. sabdariffa, accordingly, 0.65 g A. annua seeds were soaked in 100 ml of distilled water for 24 hrs to produce identical constraints in S. cannabina. For control, seeds were germinated in distilled water and all the observations were compared with it. […] Therefore, calliterpenone and its derivatives can be used to nullify the effects of other growth retardants/allelochemicals in the fields for their reclamation.

[4] = tested on: Hibiscus sabdariffa; test: as above; conditions: A. annua seed extract (1.3 g seeds/100 ml) alone or mixed 1:1 with 0.01 μm compound, control = 100%
Procedure: as §3

[5] = tested on: Trigonella foenum-graecum; test: Seed germination and seedling shoot/root growth test in petridishes; conditions: for Percent (%) germination of seeds in relation to control on 9th day after sowing / Percent (%) root growth of seedlings in relation to control on 9th day after sowing / Percent (%) shoot growth of seedlings in relation to control on 9th day after sowing: Trigonella foenum graecum, control = 100%
Summary of the method: (§4)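 Ten seeds per 9.0 cm dish on filter paper wetted with 0.1, 0.01 or 0.001 μM compound solution (ethanol or acetone cosolvent, matched in controls), in triplicate. Incubated 9 days at 25.0±1.0 °C, 90% humidity, 4 hr light/day. Germination and shoot and root length expressed relative to control taken as 100%.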

[6] = tested on: Vigna radiata; test: as above; conditions: Vigna radiata, control = 100%
Summary of the method: as §4

[7] = tested on: Hordeum vulgare; test: as above; conditions: control = 100%
Summary of the method: as §4

[8] = tested on: Triticum aestivum; test: as above; conditions: control = 100%
Summary of the method: as §4

CC(=O)OCC1(O)CC23CCC4C(C)(C)C(=O)CCC4(C)C2CCC1C3 (stereo not shown) [Calliterpenone Monoacetate, calliterpenone monoacetate]
Root growth as compared to respective control ([1]; 0.001 μM): 114% | Seed Ger. ([1]; 0.001 μM): 3 | Shoot growth as compared to respective control ([1]; 0.001 μM): 109% | Root Growth (mm) 3rd Day ([1]; 0.001 μM): 40.0 mm | Shoot growth 3rd Day ([1]; 0.001 μM): 44.0 | Root Growth (mm) 6th Day ([1]; 0.001 μM): 40.0 mm | Shoot growth 6th Day ([1]; 0.001 μM): 110.0 | Root Growth (mm) 9th Day ([1]; 0.001 μM, 9th day): 57.0 mm | Root growth as compared to GA3 taken as 100% ([1]; 0.001 μM, 9th day): 143% | Shoot growth 9th Day ([1]; 0.001 μM, 9th day): 120 | Seed Ger. ([1]; 0.01 μM): 3 | Root Growth (mm) 3rd Day ([1]; 0.01 μM): 28.3 mm | Shoot growth 3rd Day ([1]; 0.01 μM): 20.0 | Root Growth (mm) 6th Day ([1]; 0.01 μM): 28.4 mm | Shoot growth 6th Day ([1]; 0.01 μM): 57.8 | Root Growth (mm) 9th Day ([1]; 0.01 μM, 9th day): 45.1 mm | Shoot growth 9th Day ([1]; 0.01 μM, 9th day): 78.2 | Seed Ger. ([1]; 0.1 μM): 2 | Root Growth (mm) 3rd Day ([1]; 0.1 μM): 5.5 mm | Shoot growth 3rd Day ([1]; 0.1 μM): 11.0 | Root Growth (mm) 6th Day ([1]; 0.1 μM): 7.5 mm | Shoot growth 6th Day ([1]; 0.1 μM): 50.0 | Root Growth (mm) 9th Day ([1]; 0.1 μM, 9th day): 23.0 mm | Shoot growth 9th Day ([1]; 0.1 μM, 9th day): 66.0 | Germination as compared to GA3 treatments ([1]; concentration not given): 150% | Germination as compared to its control ([1]; concentration not given): 150% | Enhancement in germination (in words) [2]: did not produce any enhancement in germination | Seed Ger. ([2]; 0.001 μM): 3 | Root Growth (mm) 3rd Day ([2]; 0.001 μM): 16.3 mm | Shoot growth 3rd Day ([2]; 0.001 μM): 28.8 | Root Growth (mm) 6th Day ([2]; 0.001 μM): 19.3 mm | Shoot growth 6th Day ([2]; 0.001 μM): 85.8 | Root Growth (mm) 9th Day ([2]; 0.001 μM): 24.8 mm | Shoot growth 9th Day ([2]; 0.001 μM): 91.6 | Seed Ger. ([2]; 0.01 μM): 2 | Root Growth (mm) 3rd Day ([2]; 0.01 μM): 17.5 mm | Shoot growth 3rd Day ([2]; 0.01 μM): 33.5 | Root Growth (mm) 6th Day ([2]; 0.01 μM): 18.3 mm | Shoot growth 6th Day ([2]; 0.01 μM): 67.5 | Root Growth (mm) 9th Day ([2]; 0.01 μM): 21.3 mm | Shoot growth 9th Day ([2]; 0.01 μM): 75.2 | Seed Ger. ([2]; 0.1 μM): 0 | Percent (%) germination in relation to control on the 9th day after sowing [3]: completely checked the inhibitory effect | Percent (%) seedling growth, Root, in relation to control on the 9th day after sowing [3]: 175% | Percent (%) seedling growth, Stem, in relation to control on the 9th day after sowing [3]: 175% | Percent (%) germination in relation to control on the 9th day after sowing [4]: completely checked the inhibitory effect | Percent (%) seedling growth, Root, in relation to control on the 9th day after sowing [4]: 172% | Percent (%) seedling growth, Stem, in relation to control on the 9th day after sowing [4]: 169% | Percent (%) germination of seeds in relation to control on 9th day after sowing ([5]; 0.001 μM): 113% | Percent (%) root growth of seedlings in relation to control on 9th day after sowing ([5]; 0.001 μM): 131% | Percent (%) shoot growth of seedlings in relation to control on 9th day after sowing ([5]; 0.001 μM): 135% | Percent (%) germination of seeds in relation to control on 9th day after sowing ([5]; 0.01 μM): 113% | Percent (%) root growth of seedlings in relation to control on 9th day after sowing ([5]; 0.01 μM): 95% | Percent (%) shoot growth of seedlings in relation to control on 9th day after sowing ([5]; 0.01 μM): 134% | Percent (%) germination of seeds in relation to control on 9th day after sowing ([5]; 0.1 μM): 113% | Percent (%) root growth of seedlings in relation to control on 9th day after sowing ([5]; 0.1 μM): 81% | Percent (%) shoot growth of seedlings in relation to control on 9th day after sowing ([5]; 0.1 μM): 133% | Seed germination as compared to 100% in control ([5]; Trigonella foenum-graceum, concentration not specified): 113% | Percent (%) germination of seeds in relation to control on 9th day after sowing ([6]; 0.001 μM): 100% | Percent (%) root growth of seedlings in relation to control on 9th day after sowing ([6]; 0.001 μM): 104% | Percent (%) shoot growth of seedlings in relation to control on 9th day after sowing ([6]; 0.001 μM): 138% | Percent (%) germination of seeds in relation to control on 9th day after sowing ([6]; 0.01 μM): 150% | Percent (%) root growth of seedlings in relation to control on 9th day after sowing ([6]; 0.01 μM): 85% | Percent (%) shoot growth of seedlings in relation to control on 9th day after sowing ([6]; 0.01 μM): 130% | Percent (%) germination of seeds in relation to control on 9th day after sowing ([6]; 0.1 μM): 200% | Percent (%) root growth of seedlings in relation to control on 9th day after sowing ([6]; 0.1 μM): 67% | Percent (%) shoot growth of seedlings in relation to control on 9th day after sowing ([6]; 0.1 μM): 123% | Percent (%) germination of seeds in relation to control on 9th day after sowing ([7]; 0.001 μM): 100% | Percent (%) root growth of seedlings in relation to control on 9th day after sowing ([7]; 0.001 μM): 146% | Percent (%) shoot growth of seedlings in relation to control on 9th day after sowing ([7]; 0.001 μM): 113% | Percent (%) germination of seeds in relation to control on 9th day after sowing ([7]; 0.01 μM): 100% | Percent (%) root growth of seedlings in relation to control on 9th day after sowing ([7]; 0.01 μM): 114% | Percent (%) shoot growth of seedlings in relation to control on 9th day after sowing ([7]; 0.01 μM): 117% | Percent (%) germination of seeds in relation to control on 9th day after sowing ([7]; 0.1 μM): 100% | Percent (%) root growth of seedlings in relation to control on 9th day after sowing ([7]; 0.1 μM): 124% | Percent (%) shoot growth of seedlings in relation to control on 9th day after sowing ([7]; 0.1 μM): 118% | Percent (%) germination of seeds in relation to control on 9th day after sowing ([8]; 0.001 μM): 100% | Percent (%) root growth of seedlings in relation to control on 9th day after sowing ([8]; 0.001 μM): 145% | Percent (%) shoot growth of seedlings in relation to control on 9th day after sowing ([8]; 0.001 μM): 106% | Percent (%) germination of seeds in relation to control on 9th day after sowing ([8]; 0.01 μM): 100% | Percent (%) root growth of seedlings in relation to control on 9th day after sowing ([8]; 0.01 μM): 102% | Percent (%) shoot growth of seedlings in relation to control on 9th day after sowing ([8]; 0.01 μM): 107% | Percent (%) germination of seeds in relation to control on 9th day after sowing ([8]; 0.1 μM): 100% | Percent (%) root growth of seedlings in relation to control on 9th day after sowing ([8]; 0.1 μM): 88% | Percent (%) shoot growth of seedlings in relation to control on 9th day after sowing ([8]; 0.1 μM): 109%
